This is an account of results in publication PMC10140934, “In Vitro and In Silico Studies on Angiotensin I-Converting Enzyme Inhibitory Peptides Found in Hydrophobic Domains of Porcine Elastin” (Molecules, 2023).

Residues, ends and D or L forms follow the SMILES beside them. No end group written: not given here.

The target in the assay is T1, ACE (from rabbit lung) (Oryctolagus cuniculus, UniProt P12822).
T1 construct: ACE (20 mU/mL, from rabbit lung) was used for the enzyme solution; from tissue; host or cells: rabbit lung
T1 sequence (P12822 34-1310): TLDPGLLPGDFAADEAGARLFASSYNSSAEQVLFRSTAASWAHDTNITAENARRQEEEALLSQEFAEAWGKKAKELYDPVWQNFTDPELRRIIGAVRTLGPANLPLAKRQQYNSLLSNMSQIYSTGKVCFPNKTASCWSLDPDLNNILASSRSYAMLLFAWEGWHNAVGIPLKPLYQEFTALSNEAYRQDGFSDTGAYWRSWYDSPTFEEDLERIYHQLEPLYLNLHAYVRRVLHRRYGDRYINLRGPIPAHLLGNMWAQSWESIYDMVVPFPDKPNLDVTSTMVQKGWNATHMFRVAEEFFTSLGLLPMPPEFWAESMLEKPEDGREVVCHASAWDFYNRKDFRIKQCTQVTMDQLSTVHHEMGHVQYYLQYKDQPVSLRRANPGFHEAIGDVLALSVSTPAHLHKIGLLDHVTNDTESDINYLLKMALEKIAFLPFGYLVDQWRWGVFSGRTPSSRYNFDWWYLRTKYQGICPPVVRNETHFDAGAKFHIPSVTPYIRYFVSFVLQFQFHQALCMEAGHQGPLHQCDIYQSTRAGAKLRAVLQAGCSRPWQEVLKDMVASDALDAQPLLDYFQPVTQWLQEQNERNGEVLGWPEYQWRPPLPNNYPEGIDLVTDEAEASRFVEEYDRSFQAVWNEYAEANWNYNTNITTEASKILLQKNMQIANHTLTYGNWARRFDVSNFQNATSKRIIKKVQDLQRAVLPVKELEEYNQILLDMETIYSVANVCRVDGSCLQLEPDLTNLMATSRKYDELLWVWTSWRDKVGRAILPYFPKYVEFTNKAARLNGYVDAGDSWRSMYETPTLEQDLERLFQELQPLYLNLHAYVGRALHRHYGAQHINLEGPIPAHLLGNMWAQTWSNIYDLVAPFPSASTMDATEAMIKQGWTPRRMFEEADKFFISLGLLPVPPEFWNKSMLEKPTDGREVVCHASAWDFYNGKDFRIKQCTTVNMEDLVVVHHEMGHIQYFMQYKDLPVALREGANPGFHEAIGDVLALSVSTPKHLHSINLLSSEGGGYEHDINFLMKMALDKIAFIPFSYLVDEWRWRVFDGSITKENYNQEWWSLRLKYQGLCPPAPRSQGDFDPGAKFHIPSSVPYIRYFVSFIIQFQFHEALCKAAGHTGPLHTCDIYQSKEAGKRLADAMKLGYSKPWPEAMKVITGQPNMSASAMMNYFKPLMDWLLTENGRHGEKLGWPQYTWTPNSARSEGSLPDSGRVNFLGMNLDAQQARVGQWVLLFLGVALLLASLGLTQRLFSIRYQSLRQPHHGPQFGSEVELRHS
Put plainly: Assay of ACE inhibitory activity (HHL substrate, o-phthalaldehyde fluorescence). In kind it is biochemical. To be noted: pH 8.3, 37 °C, n = 3. The protocol:
The ACE inhibitory activity of newly synthesized peptides was measured under the following condition by using Nakano et al.’s method. ACE (20 mU/mL, from rabbit lung) was used for the enzyme solution and 100 mM hippuryl-histidyl-leucine (HHL) was used for the substrate solution. Each solution was prepared in 0.1 M HEPES buffer (pH 8.3, 0.3 M NaCl, 0.01% Triton-X). Both enzyme solution (25 μL) and sample solution (20 μL) were preincubated at 37 °C for 5 min. A total of 100 mM HHL substrate solution (25 μL) was added and incubated at 37 °C for 30 min. The reaction was stopped by the addition of 100 mM NaOH solution (25 μL), followed by the addition of 1% o-phthalaldehyde in methanol (25 μL) and maintained at room temperature for 20 min. Next, 100 mM HCl (25 μL) was added and further maintained at room temperature for 10 min. The amount of His-Leu cleaved from the substrate by ACE was determined by measuring the fluorescence intensity of the product reacted with o-phthalaldehyde (excitation wavelength 370 nm, emission wavelength 460 nm) in a microplate reader. ACE inhibitory activity was calculated by the following formula:a ACE inhibitory activity (%) = [1 − (a − c)/(b − d)] × 100(1) where a is the fluorescence intensity in the presence of both ACE and the inhibitor, b is the fluorescence intensity in the presence of ACE without the inhibitor, c is the fluorescence intensity in the presence of the inhibitor without ACE, and d is the fluorescence intensity in the absence of both ACE and the inhibitor. ACE inhibitory activity was expressed by IC50 value: the concentration of inhibition required to inhibit 50% of the ACE activity, and each IC50 value was measured three times.
Broadly, the IC50 is the concentration that inhibits the measured activity by half. On to `CC(C)[C@H](N)C(=O)N[C@@H](CO)C(=O)N1CCC[C@H]1C(=O)O` [VSP] (H-Val-Ser-Pro-OH), for which 10.4 µM corresponded to half-maximal inhibition (IC50).

For the compound `C[C@H](N)C(=O)N1CCC[C@H]1C(=O)O` [AP] (H-Ala-Pro-OH), the IC50 was determined as 230 µM.

For the compound VAPGVG [VAPGVG], the IC50 was 906 µM.

On to `CC(C)[C@H](N)C(=O)N[C@@H](C)C(=O)O` [VA] (H-Val-Ala-OH), for which the midpoint of inhibition, the IC50, lay at 326 µM.

For `CC(C)[C@H](N)C(=O)N[C@@H](C)C(=O)N1CCC[C@H]1C(=O)O` [VAP] (H-Val-Ala-Pro-OH), the IC50 was found to be 1 µM.

Consider `CC(C)[C@H](NC(=O)CN)C(=O)NCC(=O)O` [GVG] (H-Gly-Val-Gly-OH), for which it took 369 µM to reach half-maximal inhibition (IC50).

The compound `CC(C)C[C@H](NC(=O)CN)C(=O)NCC(=O)O` [GLG] (H-Gly-Leu-Gly-OH) showed an IC50 of 485 µM.

As for `C[C@H](NC(=O)CN)C(=O)N1CCC[C@H]1C(=O)O` [GAP] (H-Gly-Ala-Pro-OH), half-maximal inhibition (IC50) required 35 µM.

As to `C[C@@H](O)[C@H](N)C(=O)N[C@@H](CCCNC(=N)N)C(=O)N1CCC[C@H]1C(=O)O` [TRP] (H-Thr-Arg-Pro-OH), the IC50 is 1.3 µM.
